US10105365B2, “Solid antiviral dosage forms” (AbbVie Inc., priority 2014, dated 2018)

What was measured:
[1] = Sink Conditions dissolution testing of Formulation C5-12; assay type: physicochemical; details: N = 6
Description: The release profiles of Formulation C5-12 of Example 1 were evaluated in a Sink Conditions dissolution study. The study was conducted in 900 mL of dissolution medium using a standard USP dissolution Apparatus 2 (paddle) operating at 100 RPM at 37±0.5° C. The dissolution medium was a 0.05 M sodium phosphate buffer pH 6.8 with 15 mM cTAB as a surfactant.

[2] = Solubility (general statement); assay type: physicochemical; details: aqueous
[3] = Human pharmacokinetic study, Example 5 Arm II (multiple dose, crossover); assay type: in vivo; details: Example 5 Arm II; for AUC: read-out: AUC24, geometric mean; for concentration at 24 h: read-out: C24, geometric mean; for Cmax: read-out: Cmax, geometric mean
Description: (§1) A Phase 1, non-fasting, open-label, two-arm, four-period, randomized, crossover study was conducted to compare and characterize the pharmacokinetics of (i) Triple Tablet when co-administered with Single Tablet, and (ii) Formulation C5-12 as discussed below. Part 1 was a single dose, two-treatment, randomized, four period, two sequence replicated crossover study with 88 subjects. Doses in the four periods were separated by at least 10 days. Part 2 was a multiple-dose, two-treatment, two period, randomized crossover study with 66 subjects. Dosing in each period was 14 days and doses in the two periods were separated by at least 10 days.
(§2) Adult male and female subjects in general good health were selected to participate in the study according to the selection criteria. Subjects meeting the selection criteria were randomly assigned to one of the sequences of Regimens A and B (four sequences for Arm I and two sequences for Arm II) as shown below in Table 5-A.
(§3) Study drug was administered as provided below in Table 5-B.
(§4) Each study regimen was taken orally with approximately 240 mL of water approximately 30 minutes after the start of standardized breakfast. Study regimens were administered orally in the morning on Study Day 1 of each period. Serial blood samples for pharmacokinetic analysis were collected 72 hours after dosing in each period.

[4] = Human pharmacokinetic study, Example 4 Arm II (single dose, crossover); assay type: in vivo; details: both sexes, human, oral, Example 4 Arm II, single dose, non-fasting, N = 13; for half-life / AUC(0-t) / AUC(0-inf) / Tmax: blood; for AUC(0-t): read-out: AUCt, geometric mean; for AUC(0-inf): read-out: AUC∞, geometric mean; for Tmax: read-out: Tmax; for concentration at 24 h / Cmax: in vivo; for concentration at 24 h: read-out: C24, geometric mean; for Cmax: read-out: Cmax, geometric mean
Description: Formulation C5-12 and a second formulation were tested in Arm II of the study. Adult male and female subjects (N=30 for combined Arm I and Arm II studies) in general good health were selected to participate in the study according to the selection criteria. Subjects meeting the selection criteria were randomly assigned to one of the Regimen sequences as shown below in Table 4-A.
Study drug was administered as provided below in Table 4-B.
as §4, with “each period. For Regimen A the evening dose of the Single Tablet was taken orally with approximately 240 mL of water approximately 30 minutes after the start of the evening snack. Serial blood” for “each period. Serial blood”
The data presented in Tables 4-C through 4-G are preliminary data and are subject to database lock and final data verification.

[5] = Human pharmacokinetic study, Example 4 Arm III (14-day multiple dose, steady state); assay type: in vivo
[6] = Human pharmacokinetic study, Example 5 Arm I (single dose, replicated crossover); assay type: in vivo
Description: as §1, §2, §3, §4
Tables 5-C, 5-D, 5-E, and 5-F below report the Arm I pharmacokinetic data for Formulation C5-12 (separately reported for each of Compounds 1, 2, 3, and 4). Table 5-G presents the results of a relative bioavailability and 90% confidence interval analysis of the pharmacokinetic data for Formulation C5-12 relative to the reference regimen. The data presented in Tables 5-C through 5-G are preliminary data and are subject to database lock and final data verification by the statistician.

[7] = multiple dose 14 days, non-fasting, Regimen B (reference regimen): two Triple Tablets + one Single Tablet morning, one Single Tablet evening, N = 63
[8] = Formulation C5-12 relative to the reference regimen
[9] = both sexes, human, blood, oral, 3 film-coated Formulation C5-12 tablets daily, multiple dose 14 days, non-fasting, Regimen A (C5-12): three film-coated Formulation C5-12 tablets daily, N = 63
[10] = both sexes, human, blood, oral, multiple dose 14 days, non-fasting, Regimen B (reference regimen): two Triple Tablets + one Single Tablet morning, one Single Tablet evening, N = 63
[11] = 3 Formulation C5-12 tablets, Regimen E (C5-12): three Formulation C5-12 tablets in the morning
[12] = Regimen A (reference regimen): two Triple Tablets + one Single Tablet morning, one Single Tablet evening
[13] = Formulation C5-12, Day 14 versus Day 1
[14] = human, in vivo, oral, 3 Formulation C5-12 tablets daily, three Formulation C5-12 tablets daily for 14 days, non-fasting, Day 14, N = 14

Structure (SMILES): Cc1cnc(C(=O)N[C@H]2CCCCC/C=C\[C@@H]3C[C@@]3(C(=O)NS(=O)(=O)C3CC3)NC(=O)[C@@H]3C[C@@H](Oc4nc5ccccc5c5ccccc45)CN3C2=O)cn1 [Compound 1, (2R,6S,13aS,14aR,16aS,Z)-N-(cyclopropylsulfonyl)-6-(5-methylpyrazine-2-carboxamido)-5,16-dioxo-2-(phenanthridin-6-yloxy)-1,2,3,5,6,7,8,9,10,11,13a,14,14a,15,16,16a-hexadecahydrocyclopropa[e]pyrrolo[1,2-a][1,4]diazacyclopentadecine-14a-carboxamide]
- % Released ([1]; 1 hour, 900 mL 0.05 M sodium phosphate buffer pH 6.8, 15 mM cTAB, USP Apparatus 2, 100 RPM, 37 °C): 54%
- % Released ([1]; 4 hours, pH 6.8 buffer, 15 mM cTAB): 98%
- % Released ([1]; 6 hours, pH 6.8 buffer, 15 mM cTAB): 99%
- % Released ([1]; 8 hours, pH 6.8 buffer, 15 mM cTAB): 102%
- % Released ([1]; 12 hours, pH 6.8 buffer, 15 mM cTAB): 102%
- % Released ([1]; 16 hours, pH 6.8 buffer, 15 mM cTAB): 101%
- Solubility [2]: low solubility
- β, geometric mean ([3]; multiple dose 14 days, non-fasting, Regimen A (C5-12): three film-coated Formulation C5-12 tablets daily, N = 63): 0.129 h⁻¹
- Tmax, first value (geometric mean) [3, 7]: 4.0 h
- β, geometric mean [3, 7]: 0.128 h⁻¹
- Exposures (C24,ss and AUC24,ss) versus the reference regimen ([3]; Formulation C5-12, point estimate and 90% confidence interval for the GMR within 0.80-1.25): bioequivalent
- Cmax,ss lower than Cmax,ss for the reference regimen [3, 8]: 27%
- half-life [3, 9]: 5.2 h
- AUC [3, 9]: 8900 ng·h/mL
- concentration at 24 h [3, 9]: 34.6 ng/mL
- Cmax [3, 9]: 1500 ng/mL
- Tmax ([3]; both sexes, human, blood, oral, 3 film-coated Formulation C5-12 tablets daily, multiple dose 14 days, non-fasting, Regimen A (C5-12): three film-coated Formulation C5-12 tablets daily, N = 63, read-out: Tmax, first value (geometric mean)): 5 h
- half-life [3, 10]: 5.3 h
- AUC [3, 10]: 9240 ng·h/mL
- concentration at 24 h [3, 10]: 30.4 ng/mL
- Cmax [3, 10]: 1950 ng/mL
- bioavailability at 24 h ([3]; both sexes, human, blood, oral, Regimen A (C5-12) vs. B (reference regimen), read-out: Relative bioavailability, C24, point estimate): 106%
- half-life [4, 11]: 5.1 h
- AUC(0-t) [4, 11]: 4310 ng·h/mL
- AUC(0-inf) [4, 11]: 4330 ng·h/mL
- Tmax [4, 11]: 5.7 h
- half-life [4, 12]: 5.2 h
- AUC(0-t) [4, 12]: 4670 ng·h/mL
- AUC(0-inf) [4, 12]: 4690 ng·h/mL
- Tmax [4, 12]: 4.8 h
- concentration at 24 h [4, 11]: 24.5 ng/mL
- Cmax [4, 11]: 647 ng/mL
- concentration at 24 h [4, 12]: 24.3 ng/mL
- Cmax [4, 12]: 900 ng/mL
- AUC24, RATIO [5, 13]: 2.28
- C24, RATIO [5, 13]: 1.00
- Cmax, RATIO [5, 13]: 2.52
- Tmax ([5]; human, in vivo, oral, 3 Formulation C5-12 tablets daily, three Formulation C5-12 tablets daily for 14 days, non-fasting, Day 1, N = 14): 6.7 h
- AUC ([5]; human, in vivo, oral, 3 Formulation C5-12 tablets daily, three Formulation C5-12 tablets daily for 14 days, non-fasting, Day 1, N = 14, read-out: AUC24, geometric mean): 4640 ng·h/mL
- concentration at 24 h ([5]; human, in vivo, oral, 3 Formulation C5-12 tablets daily, three Formulation C5-12 tablets daily for 14 days, non-fasting, Day 1, N = 14, read-out: C24, geometric mean): 33.7 ng/mL
- Cmax ([5]; human, in vivo, oral, 3 Formulation C5-12 tablets daily, three Formulation C5-12 tablets daily for 14 days, non-fasting, Day 1, N = 14, read-out: Cmax, geometric mean): 651 ng/mL
- Tmax [5, 14]: 5.1 h
- half-life [5, 14]: 4.6 h
- AUC ([5]; human, in vivo, oral, 3 Formulation C5-12 tablets daily, three Formulation C5-12 tablets daily for 14 days, non-fasting, Day 14, N = 14, read-out: AUC24, geometric mean): 10600 ng·h/mL
- concentration at 24 h ([5]; human, in vivo, oral, 3 Formulation C5-12 tablets daily, three Formulation C5-12 tablets daily for 14 days, non-fasting, Day 14, N = 14, read-out: C24, geometric mean): 33.7 ng/mL
- Cmax ([5]; human, in vivo, oral, 3 Formulation C5-12 tablets daily, three Formulation C5-12 tablets daily for 14 days, non-fasting, Day 14, N = 14, read-out: Cmax, geometric mean): 1640 ng/mL
- β ([5]; three Formulation C5-12 tablets daily for 14 days, non-fasting, Day 14, N = 14): 0.151 h⁻¹
- Cmax lower than Cmax for the reference regimen [6, 8]: 30%
- Cmax ([6]; both sexes, human, blood, oral, 3 film-coated Formulation C5-12 tablets, single dose, non-fasting, Regimen A (C5-12): three film-coated Formulation C5-12 tablets, N = 172, read-out: Cmax, geometric mean): 618 ng/mL
- AUC(0-t) ([6]; both sexes, human, in vivo, oral, 3 film-coated Formulation C5-12 tablets, single dose, non-fasting, Regimen A (C5-12): three film-coated Formulation C5-12 tablets, N = 172, read-out: AUCt, geometric mean): 4460 ng·h/mL
- AUC(0-inf) ([6]; both sexes, human, in vivo, oral, 3 film-coated Formulation C5-12 tablets, single dose, non-fasting, Regimen A (C5-12): three film-coated Formulation C5-12 tablets, N = 172, read-out: AUC∞, geometric mean): 4490 ng·h/mL
- Tmax ([6]; both sexes, human, in vivo, oral, 3 film-coated Formulation C5-12 tablets, single dose, non-fasting, Regimen A (C5-12): three film-coated Formulation C5-12 tablets, N = 172, read-out: Tmax, first value (geometric mean)): 5 h
- half-life ([6]; both sexes, human, in vivo, oral, single dose, non-fasting, Regimen B (reference regimen): two Triple Tablets + one Single Tablet morning, one Single Tablet evening, N = 171): 6.02 h
- AUC(0-t) ([6]; both sexes, human, in vivo, oral, single dose, non-fasting, Regimen B (reference regimen): two Triple Tablets + one Single Tablet morning, one Single Tablet evening, N = 171, read-out: AUCt, geometric mean): 5470 ng·h/mL
- AUC(0-inf) ([6]; both sexes, human, in vivo, oral, single dose, non-fasting, Regimen B (reference regimen): two Triple Tablets + one Single Tablet morning, one Single Tablet evening, N = 171, read-out: AUC∞, geometric mean): 5490 ng·h/mL
- Tmax ([6]; both sexes, human, in vivo, oral, single dose, non-fasting, Regimen B (reference regimen): two Triple Tablets + one Single Tablet morning, one Single Tablet evening, N = 171, read-out: Tmax, first value (geometric mean)): 5 h
- t1/2 ([6]; single dose, non-fasting, Regimen A (C5-12): three film-coated Formulation C5-12 tablets, N = 172): 6.15 h
- Cmax, geometric mean ([6]; single dose, non-fasting, Regimen B (reference regimen): two Triple Tablets + one Single Tablet morning, one Single Tablet evening, N = 171): 935 ng/mL
